US6919334B2, “Antidepressant azaheterocyclymethyl derivatives of 4,5-dihydroimidazo[1,4,5-de][1,4]benzoxazine” (Wyeth, priority 2002, dated 2005)

What was measured:
[1] = molecular target: T1, human 5-HT1A receptors (Homo sapiens, UniProt P08908); experiment: [3H] 8-OHDPAT displacement from 5-HT1A receptor (transfected CHO cells); format: binding; conditions: percent displacement of [3H] 8-OHDPAT at 1 micromolar; CHO cells with human 5-HT1A
T1 construct: expressed in transfected cells; host or cells: CHO cells, stably transfected
T1 sequence (P08908 1-422): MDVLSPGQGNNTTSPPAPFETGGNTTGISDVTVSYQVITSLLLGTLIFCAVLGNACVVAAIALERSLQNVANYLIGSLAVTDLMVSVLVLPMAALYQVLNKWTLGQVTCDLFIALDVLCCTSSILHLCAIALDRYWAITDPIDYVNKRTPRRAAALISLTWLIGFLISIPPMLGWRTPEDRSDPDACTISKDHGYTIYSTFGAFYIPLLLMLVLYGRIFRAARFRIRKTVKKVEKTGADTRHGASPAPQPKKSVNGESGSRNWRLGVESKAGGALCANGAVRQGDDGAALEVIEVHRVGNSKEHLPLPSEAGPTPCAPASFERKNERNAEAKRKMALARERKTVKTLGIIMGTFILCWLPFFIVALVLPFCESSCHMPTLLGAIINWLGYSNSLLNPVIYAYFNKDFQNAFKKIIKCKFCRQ
From the text: Affinity for the serotonin 5-HT1A receptor was established by testing the claimed compound's ability to displace [^3H] 8-OHDPAT (dipropylaminotetralin) from the 5-HT1A serotonin receptor following a modification of the procedure of Hall et al., J. Neurochem. 44, 1685 (1985), which utilizes CHO cells stably transfected with human 5-HT1A receptors.

[2] = molecular target: T2, serotonin transporter (Rattus norvegicus, UniProt P31652); experiment: 3H-paroxetine displacement, affinity for the serotonin transporter; format: binding
T2 construct: displace ^3H-paroxetine from male rat frontal cortical membranes; from tissue; host or cells: male rat frontal cortex membranes
T2 sequence (P31652 whole entry): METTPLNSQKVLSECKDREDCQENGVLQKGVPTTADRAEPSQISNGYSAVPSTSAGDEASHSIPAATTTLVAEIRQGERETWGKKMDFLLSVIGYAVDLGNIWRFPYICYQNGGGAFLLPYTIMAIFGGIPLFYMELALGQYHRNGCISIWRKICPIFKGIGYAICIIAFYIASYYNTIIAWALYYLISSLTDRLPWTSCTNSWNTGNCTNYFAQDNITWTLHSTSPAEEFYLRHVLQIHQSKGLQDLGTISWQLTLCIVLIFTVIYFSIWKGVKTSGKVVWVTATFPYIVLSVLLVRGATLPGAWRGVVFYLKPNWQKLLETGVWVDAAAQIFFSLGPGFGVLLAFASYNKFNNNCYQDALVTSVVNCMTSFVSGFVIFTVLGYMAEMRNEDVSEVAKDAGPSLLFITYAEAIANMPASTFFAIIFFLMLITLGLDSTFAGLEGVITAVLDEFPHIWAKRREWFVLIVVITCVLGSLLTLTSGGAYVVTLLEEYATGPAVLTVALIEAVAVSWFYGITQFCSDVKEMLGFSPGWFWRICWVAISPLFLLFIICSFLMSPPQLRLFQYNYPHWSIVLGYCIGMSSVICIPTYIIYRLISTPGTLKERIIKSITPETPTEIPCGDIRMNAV

[3] = molecular target: T3, cloned human 5-HT1A receptors (Homo sapiens, UniProt P08908); experiment: 35S-GTPγS binding assay, antagonist activity at 5-HT1A receptors; format: biochemical; conditions: reversal of agonist 8-OHDPAT; for IC50: membranes with cloned human 5-HT1A, read-out: 5-HT1A Function IC50; for 5-HT1A Function (Imax), maximum inhibitory effect: value in parentheses
T3 construct: expressed in transfected cells
T3 sequence (P08908 1-422): T1 sequence (P08908 1-422)
Experimental: Antagonist activity at 5-HT1A receptors was established by using a ^35S-GTPγS binding assay similar to that used by Lazareno and Birdsall (Br. J. Pharmacol. 109: 1120, 1993), in which the test compound's ability to affect the binding of ^35S-GTPγS to membranes containing cloned human 5-HT1A receptors was determined. Agonists produce an increase in binding whereas antagonists produce no increase but rather reverse the effects of the standard agonist 8-OHDPAT. The test compound's maximum inhibitory effect is represented as the Imax, while its potency is defined by the IC50.

Row | Compound | 5-HT1A Receptor Affinity % @ 1 μM [1] [%] | Ki [2] [nM] | melting point [°C] | IC50 [3] [nM] | 5-HT1A Function (Imax), maximum inhibitory effect [3]
1 | O=c1[nH]c2cccc3c2n1C(CN1CC=C(c2c[nH]c4ccccc24)CC1)CO3 (stereo not drawn) [Example 1, 4-{[4-(1H-indol-3-yl)-3,6-dihydropyridin-1(2H)-yl]methyl}-4,5-dihydroimidazo[1,5,4-de][1,4]benzoxazin-2(1H)-one] | 94 | 1.07 | 147 to 149 | 300 | 30
2 | O=c1[nH]c2cccc3c2n1C(CN1CC=C(c2c[nH]c4ccc(F)cc24)CC1)CO3 (stereo not drawn) [Example 2] | 36 | 2.08 | 152 to 155 | 300 | 30
3 | O=c1[nH]c2cccc3c2n1C(CN1CC=C(c2c[nH]c4ccc(Cl)cc24)CC1)CO3 (stereo not drawn) [Example 3, 4-{[4-(5-chloro-1H-indol-3-yl)-3,6-dihydropyridin-1(2H)-yl]methyl}-4,5-dihydroimidazo[1,5,4-de][1,4]benzoxazin-2(1H)-one] | 81 | 15 | 153 to 155 | 300 | 30
4 | N#Cc1ccc2[nH]cc(C3=CCN(CC4COc5cccc6[nH]c(=O)n4c56)CC3)c2c1 (stereo not drawn) [Example 4, 3-{1-[(2-Oxo-1,2,4,5-tetrahydroimidazo[1,5,4-de][1,4]benzoxazin-4-yl)methyl]-1,2,3,6-tetrahydropyridin-4-yl}-1H-indole-5-carbonitrile] | 49 | 3.55 | > 160 | 750 | 100
5 | O=c1[nH]c2cccc3c2n1C(CN1CC=C(c2c[nH]c4c(F)cccc24)CC1)CO3 (stereo not drawn) [Example 5, 4-{[4-(7-Fluoro-1H-indol-3-yl)-3,6-dihydropyridin-1(2H)-yl]methyl}-4,5-dihydroimidazo[1,5,4-de][1,4]benzoxazin-2(1H)-one] | 48 | 1.23 | > 120 | 750 | 100
6 | Cc1nc2cccc3c2n1C(CN1CC=C(c2c[nH]c4ccccc24)CC1)CO3 (stereo not drawn) [Example 6, 4-{[4-(1H-indole-3-yl)-3,6-dihydropyridin-1(2H)-yl]methyl}-2-methyl-4,5-dihydroimidazo[1,5,4-de][1,4]benzoxazine] | 39 | 1.86 | 222 to 225 | 450 | 100
